ChEMBL document CHEMBL5214883, “Comprehensive review for anticancer hybridized multitargeting HDAC inhibitors” (Eur J Med Chem, 2021)

Columns and labels:
[1] = Cytotoxicity against human WM983B cells; assay type: functional, cell-based
HaCaT = test: Cytotoxicity against human HaCat cells by trypan blue staining method; assay type: functional; conditions: read-out: LC50 (the source's name)
HEK-293T = test: Cytotoxicity against human 293T cells by trypan blue staining method; assay type: functional; conditions: read-out: LC50 (the source's name)
Jurkat = test: Cytotoxicity against human Jurkat cells by trypan blue staining method; assay type: functional; conditions: read-out: LC50 (the source's name)
MCF7 [2] = test: Cytotoxicity against human MCF7 cells by trypan blue staining method; assay type: functional, cell-based
L1210 = test: Cytotoxicity against mouse L1210 cells by trypan blue staining method; assay type: functional; conditions: read-out: LC50 (the source's name)
Histone deacetylase 1 [3] = molecular target: T1, Histone deacetylase 1 (Homo sapiens, UniProt Q13547); test: Inhibition of HDAC1 (unknown origin) relative to control; conditions: concentration not given here
[4] = molecular target: T2, Epidermal growth factor receptor (Homo sapiens, UniProt P00533); test: Inhibition of EGFR wildtype (unknown origin) incubated for 40 mins in presence of ATP
[5] = molecular target: Epidermal growth factor receptor (Homo sapiens, UniProt P00533, T790M); test: Inhibition of EGFR T790M (unknown origin) incubated for 40 mins in presence of ATP
Histone deacetylase 1 [6] = molecular target: T1, Histone deacetylase 1; test: Inhibition of HDAC1 in human HeLa cell nuclear extract using Bos-Lys(acetyl)-AMC as substrate preincubated for 5 mins followed by substrate addition incubated for 30 mins; assay type: cell-free
[7] = test system: Epidermal growth factor receptor (Homo sapiens), P00533 [UNDEFINED MUTATION]; test: Inhibition of EGFR T790M (unknown origin) at 1 uM incubated for 40 mins in presence of ATP relative to control
CAPAN-1 = test: Antitumor activity against human CAPAN-1 cells xenografted in mouse assessed tumor growth inhibition at 20 mg/kg, ip, bid relative to control; assay type: functional; conditions: read-out: TGI
[8] = molecular target: Cyclin-dependent kinase 4 (Homo sapiens, UniProt P11802); test: Inhibition of Cdk4 (unknown origin)
Histone deacetylase 1 [9] = molecular target: T1, Histone deacetylase 1; test: Inhibition of HDAC1 (unknown origin)
Histone deacetylase 3 = Histone deacetylase 3 (Homo sapiens, UniProt O15379); test: Inhibition of HDAC3 (unknown origin)
[10] = molecular target: Polyamine deacetylase HDAC10 (Homo sapiens, UniProt Q969S8); test: Inhibition of HDAC10 (unknown origin)
[11] = molecular target: T3, Protein deacetylase HDAC6 (Homo sapiens, UniProt Q9UBN7); test: Inhibition of HDAC6 (unknown origin)
T3 sequence (Q9UBN7 whole entry): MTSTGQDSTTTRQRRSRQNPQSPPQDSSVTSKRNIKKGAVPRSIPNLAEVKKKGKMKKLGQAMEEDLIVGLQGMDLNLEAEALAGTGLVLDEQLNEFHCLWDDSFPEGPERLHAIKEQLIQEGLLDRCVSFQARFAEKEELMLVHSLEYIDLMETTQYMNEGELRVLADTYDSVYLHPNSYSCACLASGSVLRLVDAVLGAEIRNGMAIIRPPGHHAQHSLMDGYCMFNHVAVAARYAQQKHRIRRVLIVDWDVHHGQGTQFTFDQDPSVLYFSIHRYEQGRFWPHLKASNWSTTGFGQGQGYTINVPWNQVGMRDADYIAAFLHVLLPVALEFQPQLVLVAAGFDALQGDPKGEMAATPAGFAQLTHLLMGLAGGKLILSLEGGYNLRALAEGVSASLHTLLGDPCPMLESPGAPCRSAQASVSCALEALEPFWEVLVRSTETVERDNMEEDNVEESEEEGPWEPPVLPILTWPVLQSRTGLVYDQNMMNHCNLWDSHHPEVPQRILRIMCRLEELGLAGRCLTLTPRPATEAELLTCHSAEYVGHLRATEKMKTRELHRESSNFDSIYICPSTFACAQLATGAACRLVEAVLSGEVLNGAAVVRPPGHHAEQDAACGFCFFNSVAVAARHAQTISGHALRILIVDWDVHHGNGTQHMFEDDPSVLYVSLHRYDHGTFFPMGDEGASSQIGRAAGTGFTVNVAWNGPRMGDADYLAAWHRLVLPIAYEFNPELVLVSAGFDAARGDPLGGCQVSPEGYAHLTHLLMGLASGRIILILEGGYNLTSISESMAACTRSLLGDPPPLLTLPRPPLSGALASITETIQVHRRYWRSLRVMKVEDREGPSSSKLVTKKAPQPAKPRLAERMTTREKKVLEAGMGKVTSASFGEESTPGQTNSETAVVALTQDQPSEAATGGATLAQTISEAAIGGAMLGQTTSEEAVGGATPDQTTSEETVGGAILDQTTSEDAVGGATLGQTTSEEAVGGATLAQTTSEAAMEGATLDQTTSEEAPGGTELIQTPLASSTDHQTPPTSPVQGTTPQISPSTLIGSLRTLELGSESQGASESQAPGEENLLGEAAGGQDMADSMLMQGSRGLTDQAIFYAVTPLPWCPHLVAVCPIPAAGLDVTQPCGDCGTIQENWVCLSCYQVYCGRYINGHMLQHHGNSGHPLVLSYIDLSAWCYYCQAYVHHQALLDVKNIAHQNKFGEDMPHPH

[12] = Antiproliferative activity against breast cancer cell line (unknown origin)
[13] = Antiproliferative activity against non-small cell lung cancer cell line (unknown origin)
[14] = molecular target: Receptor tyrosine-protein kinase erbB-2 (Homo sapiens, UniProt P04626); test: Inhibition of HER2 (unknown origin)
[15] = molecular target: T2, Epidermal growth factor receptor; test: Inhibition of EGFR (unknown origin)
[16] = Inhibition of PDGFR (unknown origin); parameters: species or system Homo sapiens
Histone deacetylase 11 = Histone deacetylase 11 (Homo sapiens, UniProt Q96DB2); test: Inhibition of HDAC11 (unknown origin)
Histone deacetylase 8 = Histone deacetylase 8 (Homo sapiens, UniProt Q9BY41); test: Inhibition of HDAC8 (unknown origin)
Histone deacetylase 2 = Histone deacetylase 2 (Homo sapiens, UniProt Q92769); test: Inhibition of human HDAC2 incubated for 30 mins by SpectraMax M2 microplate reader analysis
Tubulin = test: Inhibition of tubulin polymerization (unknown origin) incubated for 15 mins in presence of GTP by fluorescence-based tubulin polymerization assay kit; assay type: protein-complex assay, Homo sapiens
[17] = Cytotoxicity against African green monkey Vero cells; conditions: African green monkey (Chlorocebus sabaeus)
MDA-MB-231 = test: Cytotoxicity against human MDA-MB-231 cells; assay type: functional, cell-based
PC-3 = test: Cytotoxicity against human PC-3 cells; assay type: functional, cell-based
MCF7 [18] = test: Cytotoxicity against human MCF7 cells; assay type: functional, cell-based
RWPE-1 = test: Cytotoxicity against human RWPE-1 cells; assay type: functional, cell-based

T1 sequence (Q13547 whole entry): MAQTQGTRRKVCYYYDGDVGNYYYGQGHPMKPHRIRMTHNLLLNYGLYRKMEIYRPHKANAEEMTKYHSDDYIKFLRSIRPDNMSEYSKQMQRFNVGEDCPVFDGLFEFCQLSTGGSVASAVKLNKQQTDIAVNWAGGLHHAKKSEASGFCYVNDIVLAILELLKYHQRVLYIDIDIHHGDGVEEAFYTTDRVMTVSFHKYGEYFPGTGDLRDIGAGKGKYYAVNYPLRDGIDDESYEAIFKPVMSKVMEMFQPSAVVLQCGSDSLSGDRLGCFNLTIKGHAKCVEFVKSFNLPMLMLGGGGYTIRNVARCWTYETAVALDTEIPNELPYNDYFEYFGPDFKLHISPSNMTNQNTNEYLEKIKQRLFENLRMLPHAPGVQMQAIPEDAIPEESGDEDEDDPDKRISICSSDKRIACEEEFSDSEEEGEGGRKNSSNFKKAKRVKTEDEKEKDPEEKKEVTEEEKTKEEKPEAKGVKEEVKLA
Histone deacetylase 3, sequence (O15379 whole entry): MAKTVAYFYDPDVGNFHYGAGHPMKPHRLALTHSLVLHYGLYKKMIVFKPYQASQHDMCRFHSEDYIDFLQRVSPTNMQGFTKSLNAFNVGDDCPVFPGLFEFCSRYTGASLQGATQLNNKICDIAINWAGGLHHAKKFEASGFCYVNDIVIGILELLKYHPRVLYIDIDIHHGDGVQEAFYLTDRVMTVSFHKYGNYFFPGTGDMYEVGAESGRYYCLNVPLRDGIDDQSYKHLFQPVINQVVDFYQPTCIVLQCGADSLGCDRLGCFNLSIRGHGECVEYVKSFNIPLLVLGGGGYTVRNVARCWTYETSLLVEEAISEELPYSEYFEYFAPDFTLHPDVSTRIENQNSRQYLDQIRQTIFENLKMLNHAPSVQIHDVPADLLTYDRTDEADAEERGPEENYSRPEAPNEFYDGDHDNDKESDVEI
T2 sequence (P00533 whole entry): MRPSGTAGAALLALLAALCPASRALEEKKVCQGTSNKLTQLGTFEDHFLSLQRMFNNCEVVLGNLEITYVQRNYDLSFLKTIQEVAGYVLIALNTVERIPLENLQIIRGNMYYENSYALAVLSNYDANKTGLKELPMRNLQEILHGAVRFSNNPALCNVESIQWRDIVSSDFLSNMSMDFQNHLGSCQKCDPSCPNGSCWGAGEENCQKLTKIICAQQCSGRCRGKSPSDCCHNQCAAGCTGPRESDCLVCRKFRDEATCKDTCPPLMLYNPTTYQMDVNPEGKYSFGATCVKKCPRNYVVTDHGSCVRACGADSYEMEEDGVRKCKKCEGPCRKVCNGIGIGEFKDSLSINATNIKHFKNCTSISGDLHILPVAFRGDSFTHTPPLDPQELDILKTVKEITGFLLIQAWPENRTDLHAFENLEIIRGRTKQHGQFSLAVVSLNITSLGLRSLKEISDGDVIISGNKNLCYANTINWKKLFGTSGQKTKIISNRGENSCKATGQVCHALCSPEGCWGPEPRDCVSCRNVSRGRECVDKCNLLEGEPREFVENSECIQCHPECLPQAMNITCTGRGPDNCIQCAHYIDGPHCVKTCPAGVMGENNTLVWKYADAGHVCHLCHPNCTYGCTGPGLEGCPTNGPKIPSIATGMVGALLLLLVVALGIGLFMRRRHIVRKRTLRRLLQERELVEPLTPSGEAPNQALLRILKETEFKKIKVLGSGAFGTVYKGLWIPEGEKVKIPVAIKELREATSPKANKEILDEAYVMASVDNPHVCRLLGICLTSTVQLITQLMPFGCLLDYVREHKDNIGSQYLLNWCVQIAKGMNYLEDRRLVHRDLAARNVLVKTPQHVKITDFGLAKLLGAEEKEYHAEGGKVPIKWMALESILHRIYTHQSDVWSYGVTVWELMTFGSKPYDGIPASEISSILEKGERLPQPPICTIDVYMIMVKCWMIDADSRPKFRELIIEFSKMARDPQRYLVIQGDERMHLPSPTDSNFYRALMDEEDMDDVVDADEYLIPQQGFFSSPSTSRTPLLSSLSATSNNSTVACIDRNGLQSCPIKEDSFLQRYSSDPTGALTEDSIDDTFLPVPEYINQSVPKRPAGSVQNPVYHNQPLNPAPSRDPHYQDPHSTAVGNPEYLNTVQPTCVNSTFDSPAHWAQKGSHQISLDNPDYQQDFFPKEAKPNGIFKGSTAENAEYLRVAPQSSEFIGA
Histone deacetylase 2, sequence (Q92769 whole entry): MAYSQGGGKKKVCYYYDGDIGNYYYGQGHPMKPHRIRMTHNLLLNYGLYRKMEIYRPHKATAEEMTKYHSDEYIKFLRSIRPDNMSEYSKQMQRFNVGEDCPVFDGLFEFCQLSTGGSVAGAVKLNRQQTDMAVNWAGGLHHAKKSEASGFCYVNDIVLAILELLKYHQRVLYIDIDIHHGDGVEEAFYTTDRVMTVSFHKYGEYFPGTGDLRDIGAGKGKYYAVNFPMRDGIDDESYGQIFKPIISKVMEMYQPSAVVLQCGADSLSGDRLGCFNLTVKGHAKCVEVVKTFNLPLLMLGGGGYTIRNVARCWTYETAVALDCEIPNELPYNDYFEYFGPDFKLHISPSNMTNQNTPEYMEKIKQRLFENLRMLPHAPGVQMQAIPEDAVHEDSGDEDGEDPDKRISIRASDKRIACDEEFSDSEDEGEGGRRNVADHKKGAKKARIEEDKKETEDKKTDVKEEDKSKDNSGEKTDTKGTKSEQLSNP
Histone deacetylase 8, sequence (Q9BY41 whole entry): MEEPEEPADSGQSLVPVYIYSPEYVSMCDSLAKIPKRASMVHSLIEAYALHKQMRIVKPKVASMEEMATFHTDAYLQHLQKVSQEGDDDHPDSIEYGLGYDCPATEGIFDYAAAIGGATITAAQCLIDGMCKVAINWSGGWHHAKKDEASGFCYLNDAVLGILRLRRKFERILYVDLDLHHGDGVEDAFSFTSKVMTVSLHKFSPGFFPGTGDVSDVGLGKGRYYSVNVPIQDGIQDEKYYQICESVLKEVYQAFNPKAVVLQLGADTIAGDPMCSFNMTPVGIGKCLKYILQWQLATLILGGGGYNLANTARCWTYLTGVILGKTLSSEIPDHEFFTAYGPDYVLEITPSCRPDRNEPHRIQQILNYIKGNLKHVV
Cyclin-dependent kinase 4, sequence (P11802 whole entry): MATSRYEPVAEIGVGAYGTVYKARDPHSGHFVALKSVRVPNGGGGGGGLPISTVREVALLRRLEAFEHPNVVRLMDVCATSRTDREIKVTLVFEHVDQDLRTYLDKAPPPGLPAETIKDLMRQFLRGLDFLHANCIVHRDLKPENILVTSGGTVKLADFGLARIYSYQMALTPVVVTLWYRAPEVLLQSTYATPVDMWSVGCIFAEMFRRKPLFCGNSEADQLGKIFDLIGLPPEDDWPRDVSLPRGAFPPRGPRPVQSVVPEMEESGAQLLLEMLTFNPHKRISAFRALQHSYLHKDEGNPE
Polyamine deacetylase HDAC10, sequence (Q969S8 whole entry): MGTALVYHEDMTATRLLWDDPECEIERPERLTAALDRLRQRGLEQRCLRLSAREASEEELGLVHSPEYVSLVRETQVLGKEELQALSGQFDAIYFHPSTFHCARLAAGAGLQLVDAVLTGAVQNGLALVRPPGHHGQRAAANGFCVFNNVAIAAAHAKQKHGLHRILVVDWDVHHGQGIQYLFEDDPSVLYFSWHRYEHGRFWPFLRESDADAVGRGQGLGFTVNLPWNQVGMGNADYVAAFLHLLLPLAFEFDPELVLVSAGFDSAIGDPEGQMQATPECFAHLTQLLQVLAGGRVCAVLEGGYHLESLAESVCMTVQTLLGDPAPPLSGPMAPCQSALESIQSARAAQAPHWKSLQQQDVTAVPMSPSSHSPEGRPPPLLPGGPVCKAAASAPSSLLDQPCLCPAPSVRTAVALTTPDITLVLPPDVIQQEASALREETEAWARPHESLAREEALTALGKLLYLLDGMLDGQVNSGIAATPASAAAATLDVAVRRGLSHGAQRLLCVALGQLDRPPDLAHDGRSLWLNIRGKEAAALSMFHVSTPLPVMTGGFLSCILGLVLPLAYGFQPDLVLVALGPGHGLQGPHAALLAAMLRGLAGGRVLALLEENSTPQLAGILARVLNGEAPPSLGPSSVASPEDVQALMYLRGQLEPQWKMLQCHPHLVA
Histone deacetylase 11, sequence (Q96DB2 whole entry): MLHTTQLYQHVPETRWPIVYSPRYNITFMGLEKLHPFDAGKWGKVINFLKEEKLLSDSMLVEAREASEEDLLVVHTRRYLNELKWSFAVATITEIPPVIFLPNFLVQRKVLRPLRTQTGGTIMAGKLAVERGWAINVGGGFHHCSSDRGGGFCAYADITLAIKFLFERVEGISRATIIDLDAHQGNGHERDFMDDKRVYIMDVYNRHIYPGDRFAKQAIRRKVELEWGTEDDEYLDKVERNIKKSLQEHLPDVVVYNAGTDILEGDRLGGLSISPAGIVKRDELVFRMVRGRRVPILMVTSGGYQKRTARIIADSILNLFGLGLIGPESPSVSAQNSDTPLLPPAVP

For `Nc1ccccc1NC(=O)c1ccc(CCCC(=O)Nc2ccc(C3CC3N)cc2)cc1` (stereo not given), the IC50 [1] was 200 nM.
For `O=C(CCn1cc(CCn2nnc3c(Br)c(Br)c(Br)c(Br)c32)nn1)NO`, the CC50 (HaCaT) was 13.5 µM, the CC50 (HEK-293T) was 13.5 µM and the CC50 (Jurkat) was 13.5 µM. For the same compound, the IC50 (MCF7 [2]) was 17.3 µM, the CC50 (L1210) was 13.5 µM and the inhibition (Histone deacetylase 1 [3]) was 90%.
`Cn1cc(-c2ccnc(Nc3ccc(NC(=O)CCCCCCC(=O)NO)cc3)n2)c2ccccc21` gave an IC50 [4] of 3.2 µM, an IC50 [5] of 1200 nM and an IC50 (Histone deacetylase 1 [6]) of 105 nM. For the same compound, the inhibition [7] was 44%.
`Cc1sc2c(c1C)C(c1ccc(Cl)cc1)=N[C@@H](CC(=O)Nc1ccc(C(=O)NO)cc1)c1nnc(C)n1-2` showed an inhibition in vivo at 20 mg/kg (CAPAN-1) of 87.7%.
Compound `Cc1nc2c(F)cc(-c3nc(Nc4ccc(CNC(=O)CC(=O)NO)cc4)ncc3F)cc2n1C(C)C` has an IC50 [8] of 1.2 nM, an IC50 (Histone deacetylase 1 [9]) of 26 nM and an IC50 (Histone deacetylase 3) of 56 nM. For the same compound, the IC50 [10] was 73 nM, the IC50 [11] was 0.0059 µM and the IC50 [12] was 18.3 nM. The IC50 [13] was 18.3 nM.
Compound `C#Cc1cccc(Nc2ncnc3ccc(S(=O)(=O)n4ccc(/C=C/C(=O)Nc5ccccc5N)c4)cc23)c1` has an IC50 [14] of 66 nM, an IC50 [15] of 78 nM and an IC50 (Histone deacetylase 1 [9]) of 41 nM.
For `Cc1ccc(NCc2ccc(C(=O)Nc3ccccc3N)cc2)cc1Nc1nccc(-c2cccnc2)n1`, the IC50 [16] was 2700 nM and the IC50 [11] was at least 32 µM.
`O=C(CCCCCOc1no[n+]([O-])c1S(=O)(=O)c1ccccc1)NO` showed an IC50 (Histone deacetylase 11) of 608 nM, an IC50 (Histone deacetylase 8) of 343 nM and an IC50 (Histone deacetylase 3) of 532 nM. The IC50 [11] was 7.4 µM.
`C[C@H]1COc2c(N3CCN(C)CC3)c(F)cc3c(=O)c(C(=O)NCc4cn(CCCCCC(=O)NO)nn4)cn1c23` gave an IC50 (Histone deacetylase 2) of 850 nM and an IC50 (Tubulin) of 2020 nM.
For `CC1(C)C(=O)N(c2ccc(C#N)c(C(F)(F)F)c2)C(=O)N1CCCCCCc1cn(CCCCCCC(=O)NO)nn1`, the IC50 [17] was over 20 µM, the IC50 (MDA-MB-231) was over 20 µM and the IC50 (PC-3) was 15.7 µM. For the same compound, the IC50 (MCF7 [18]) was 14.6 µM and the IC50 (RWPE-1) was 12.1 µM.
